The values that follow come from patent US12551368B2, “Bioerodible ocular drug delivery insert and therapeutic method” (EyePoint Pharmaceuticals, Inc., priority 2020, dated 2026).

Data set [1] concerns Laser-Induced Choroidal Neovascularization (CNV). Kind of data set: Laser-Induced Choroidal Neovascularization (CNV) model, fluorescein angiography (Example 7). It is filed as in vivo, Swine (Mini-pig). On the procedure: Safety and efficacy of a vorolanib insert were evaluated in a Swine (Mini-pig) Model of Laser-Induced Choroidal Neovascularization (CNV). The primary objective of this study was to evaluate the long-term safety and inhibition of vascular permeability and neovascularization in a laser-induced model of choroidal neovascularization (CNV) using a vorolanib insert in swine.
On the day of lasering (Groups 1-4) animals were treated with an 810 nm diode laser delivered through an indirect ophthalmoscope. Approximately 6 single laser spots were placed between retinal veins. Both eyes underwent laser treatment according to the schedule in the table above.
On the day of intravitreal injections animals were anesthetized and the eyes were aseptically prepared. […] Animals were allowed to recover normally from the procedure. The pigs were given a topical drop of antibiotic ophthalmic solution 4-6 hours later, and then BID for 2 additional days with at least 6 hours between doses. Animals were dosed on either Day 0 immediately following laser CNV induction or 7 days prior to laser CNV induction according to the schedule in the table above.
Flourescein Angiography was done in both eyes in anesthetized animals at the timepoints as indicated in the experimental design table.

The conditions of data set [2]: cited from earlier work.
Data set [3] in a line: Intravitreal Pharmacokinetic Study of vorolanib insert (Example 5). The data set is classed as in vivo, Male Dutch Belted Rabbits. As for the experimental part: An Intravitreal Pharmacokinetic Study was performed in Male Dutch Belted Rabbits. The objective of this study was to characterize the plasma and ocular tissue pharmacokinetics of a vorolanib insert following bilateral intravitreal injection on Day 1. Animals were evaluated up to 24 months following placement of the intravitreal insert.
The low dose group (1) received 3 inserts per eye for a total dose of 630 μg per eye. The high dose group (2) animals received 6 inserts per eye given in 2 separate injections (3 inserts per injection) for a total dose of 1,260 μg per eye.
Prior to each scheduled sacrifice point, one whole blood sample was collected from a targeted 2 animals per group via puncture of a marginal ear vein. Samples were tested for levels of vorolanib and its metabolite. Two animals per group were euthanized on day 1 at 6, 12, 24 and 48 hours, on days 7 and 14, and at 1, 2, 4, 6, 8, 16 and 24 months.

Data set [4] in a line: 18 month intravitreal toxicity and plasma pharmacokinetics study of the insert (Example 6). It is filed as in vivo. The conditions noted are these: rabbit. As for the experimental part:
An 18 month intravitreal toxicity study for the insert was also performed in 80 Dutch Belted rabbits (40 male and 40 female). Animals were evaluated for a period of 6 and 18 months following placement of intravitreal inserts. The objective was to characterize the ocular toxicity, plasma pharmacokinetics and biodegradation of a vorolanib insert following bilateral intravitreal injection.
The tables below describe the group assignments and dose levels. For the toxicology groups, animals were sacrificed at 6 months and 18 months. For the plasma pharmacokinetic analysis, blood samples were collected at Days 1, 3, and 7 and then 1, 2, 3, 4, 5, 6, 12, 14, 16 and 18 Months
The placebo group (1) animals received two placebo inserts by injection in each eye. The low dose group (2) animals received 2 inserts in each eye. The mid dose group (3) animals received 3 inserts in each eye given in 2 separate injections. The high dose group (4) animals received 4 inserts in each eye given in 2 separate injections (2 inserts/injection). The highest dose group (5) animals received 6 inserts in each eye given in 2 separate injections (3 inserts/injection).
At each scheduled timepoint, whole blood was collected via puncture of a marginal ear vein. Samples were analyzed for clinical pathology and plasma pharmacokinetics. Animals were euthanized according to the schedules described above. […]

Regarding “aflibercept: VEGF inhibitor used as comparator, 2 mg, 50 μL/eye IVT”, the “reduction in Corrected Total Lesion Fluorescence (CTLF) value” in data set [1] (Day 7 to Day 28, Aflibercept (2 mg), 50 μL/eye IVT) is on record as “largest reduction in CTLF values”. For the same compound, the “overall efficacy in the CNV model” value in data set [1] (IVT, swine) is on record as “normal amounts of efficacy in this model”.
Take `CNC(=O)c1ccccc1Sc1ccc2c(/C=C/c3ccccn3)n[nH]c2c1` [axitinib, N-methyl-2-[3-((E)-2-pyridin-2-yl-vinyl)-1H-indazol-6-ylsulfanyl]-benzamide]: the “solubility in aqueous media” value in data set [2] (over the range pH 1.1 to pH 7.8) was > 0.2 µg/mL.
For the compound `Cc1[nH]c(/C=C2\C(=O)Nc3ccc(F)cc32)c(C)c1C(=O)N[C@H]1CCN(C(=O)N(C)C)C1` [vorolanib, (S,Z)—N-(1-(Dimethylcarbamoyl)pyrrolidin-3-yl)-5-((5-fluoro-2-oxoindolin-3-ylidene)methyl)-2,4-dimethyl-1H-pyrrole-3-carboxamide], the solubility in water result in data set [2] is “less than 0.1 μg/mL”. In addition, the “dose proportionality of maximum observed concentrations in vitreous and retina/choroid” value in data set [3] (630 vs 1,260 μg per eye, rabbit) was “nearly dose-proportional”. Further, the vorolanib plasma levels result was “low pg/mL range” in data set [3] (PK study, rabbit) and “low pg/mL range” in data set [4] (2 to 6 inserts per eye, bilateral intravitreal, toxicology study). Further, the “change in plasma levels” value in data set [3] (after 99 days, rabbit) is on record as “No apparent change”. Further, the “vorolanib levels in the vitreous and the retina/choroid relative to the IC50 for VEGFR” value in data set [3] (at the time points tested, rabbit) is given as “remained significantly above the IC50 for VEGFR”. Further, in data set [3] (inserts in rabbit eye), the “time at which steady state was reached” value was ≤ 105 days. In data set [3] (inserts in rabbit eye, followed by steady state), the “burst period of drug release in vivo” value stood at 90 days. Further, the adverse findings result in data set [4] (intravitreal, up to 6 inserts per eye) is recorded as “No adverse findings were attributed to vorolanib”.
